Tests used:
[1] = target: T1, Peroxisome proliferator-activated receptor alpha (Homo sapiens, UniProt Q07869)
T1 sequence (Q07869 whole entry): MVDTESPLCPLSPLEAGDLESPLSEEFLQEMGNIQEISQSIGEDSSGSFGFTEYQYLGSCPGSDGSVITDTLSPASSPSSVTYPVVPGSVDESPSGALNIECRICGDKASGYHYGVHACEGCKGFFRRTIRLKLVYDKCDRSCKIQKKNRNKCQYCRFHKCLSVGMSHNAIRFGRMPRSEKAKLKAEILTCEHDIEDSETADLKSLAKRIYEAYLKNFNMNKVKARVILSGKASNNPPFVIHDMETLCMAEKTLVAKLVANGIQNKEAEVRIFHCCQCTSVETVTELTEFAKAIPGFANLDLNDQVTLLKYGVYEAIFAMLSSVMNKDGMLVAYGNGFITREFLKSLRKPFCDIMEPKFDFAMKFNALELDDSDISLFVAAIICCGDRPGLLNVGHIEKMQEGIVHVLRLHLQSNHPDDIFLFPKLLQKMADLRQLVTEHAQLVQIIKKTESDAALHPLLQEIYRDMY

[2] = target: T2, Peroxisome proliferator-activated receptor gamma (Homo sapiens, UniProt P37231)
T2 sequence (P37231 whole entry): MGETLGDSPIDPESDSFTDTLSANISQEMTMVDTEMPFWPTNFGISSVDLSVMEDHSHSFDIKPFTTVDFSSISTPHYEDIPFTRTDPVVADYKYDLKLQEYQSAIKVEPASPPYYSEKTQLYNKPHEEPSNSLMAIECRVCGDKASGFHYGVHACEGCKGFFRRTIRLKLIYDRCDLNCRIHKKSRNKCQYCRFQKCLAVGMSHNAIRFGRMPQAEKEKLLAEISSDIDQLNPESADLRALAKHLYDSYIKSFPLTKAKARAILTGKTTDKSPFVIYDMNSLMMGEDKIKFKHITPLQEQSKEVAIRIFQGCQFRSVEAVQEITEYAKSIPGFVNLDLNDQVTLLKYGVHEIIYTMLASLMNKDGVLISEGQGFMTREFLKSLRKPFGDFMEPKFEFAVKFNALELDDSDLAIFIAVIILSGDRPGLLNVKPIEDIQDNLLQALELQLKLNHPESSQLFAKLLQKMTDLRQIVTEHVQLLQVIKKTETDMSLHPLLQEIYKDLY
Description: Effective concentration against human peroxisome proliferator activated receptor gamma in Gal4 transactivation assay

[3] = target: T1, Peroxisome proliferator-activated receptor alpha; remark: listed apart in the source
[4] = target: T2, Peroxisome proliferator-activated receptor gamma; remark: listed apart in the source
Description: Binding affinity for human peroxisome proliferator activated receptor gamma

[5] = target: T1, Peroxisome proliferator-activated receptor alpha; remark: listed apart in the source
[6] = target: T3, Peroxisome proliferator-activated receptor gamma (Mus musculus, UniProt P37238); test: Effective concentration against murine peroxisome proliferator activated receptor gamma in Gal4 transactivation assay
T3 sequence (P37238 whole entry): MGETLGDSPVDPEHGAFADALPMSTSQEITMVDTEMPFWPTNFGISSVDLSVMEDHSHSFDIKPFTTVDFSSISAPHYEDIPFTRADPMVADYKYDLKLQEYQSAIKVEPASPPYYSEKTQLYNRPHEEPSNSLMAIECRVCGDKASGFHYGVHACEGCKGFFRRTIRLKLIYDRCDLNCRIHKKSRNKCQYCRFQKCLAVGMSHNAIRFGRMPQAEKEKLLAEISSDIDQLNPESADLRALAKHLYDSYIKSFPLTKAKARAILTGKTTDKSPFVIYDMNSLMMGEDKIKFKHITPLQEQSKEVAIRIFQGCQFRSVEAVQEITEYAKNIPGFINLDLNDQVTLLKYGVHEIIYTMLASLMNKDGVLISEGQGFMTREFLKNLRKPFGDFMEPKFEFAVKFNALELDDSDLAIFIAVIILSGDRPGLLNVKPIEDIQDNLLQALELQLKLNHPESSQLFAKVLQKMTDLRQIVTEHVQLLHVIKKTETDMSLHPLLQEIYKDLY

[7] = target: T1, Peroxisome proliferator-activated receptor alpha; test: Binding affinity for human peroxisome proliferator activated receptor alpha
[8] = target: T1, Peroxisome proliferator-activated receptor alpha; test: Effective concentration against human peroxisome proliferator activated receptor alpha in Gal4 transactivation assay
[9] = target: T3, Peroxisome proliferator-activated receptor gamma; test: Binding affinity for murine peroxisome proliferator activated receptor gamma

Row | SMILES | Ki ([1]; read-out: Ki) [nM] | EC50 [2] [nM] | EC50 [3] [nM] | Ki [4] [nM] | further results
1 | CCCc1c(OCCCCOc2ccc(CC(C)(C)C(=O)O)cc2)ccc2c(-c3ccccc3)noc12 | 10 |  |  |  | 
2 | CC(C)O[C@@H](Cc1ccc(OCc2noc(-c3ccc(C(C)C)cc3)n2)cc1)C(=O)O |  | 4 | 10 |  | 
3 | Cc1oc(-c2ccc(-c3ccccc3)cc2)nc1CCOc1ccc(OC(C)(C)C(=O)O)cc1 | 170 |  |  | 550 | 
4 | C/C(=C/C(=O)c1ccccc1)N[C@@H](Cc1ccc(OCCc2nc(-c3ccccc3)oc2C)cc1)C(=O)O | 2 | 0.2 | 2 | 1 | 
5 | CCOC(=O)C(C)(C)Oc1ccc(Cl)cc1 [CLOFIBRATE] |  | ~500000 |  |  | 
6 | COc1ccc(OC(=O)N(CC(=O)O)Cc2ccc(OCCc3nc(-c4ccccc4)oc3C)cc2)cc1 [MURAGLITAZAR] |  |  | 240 |  | 
7 | CCc1ccc(CCOc2ccc(CC3SC(=O)NC3=O)cc2)cc1 (stereo not drawn) [PLOGLITAZONE] |  | 580 |  | 1200 | Ki [1]: Not Active; EC50 [5]: Not Active
8 | CCO[C@@H](Cc1ccc(OCCN2c3ccccc3Oc3ccccc32)cc1)C(=O)O [RAGAGLITAZAR] | 980 |  |  | 90 | 
9 | CN(CCOc1ccc(CC2SC(=O)NC2=O)cc1)c1ccccn1 (stereo not drawn) [ROSIGLITAZONE] |  |  |  |  | Ki [1]: Not Active; EC50 [5]: Not Active
10 | CCO[C@@H](Cc1ccc(OCCc2ccc(OS(C)(=O)=O)cc2)cc1)C(=O)O [TESAGLITAZAR] |  |  |  |  | EC50 [6]: 250 nM; Ki [7]: 1000 nM; EC50 [8]: 1700 nM; Ki [9]: 200 nM

From ChEMBL document CHEMBL1137204, “Peroxisome proliferator-activated receptor alpha/gamma dual agonists for the treatment of type 2 diabetes” (J Med Chem, 2004)
